Here are results for 20 compounds from US8580825B2, “Oxadiazole inhibitors of leukotriene production” (Boehringer Ingelheim International GmbH, priority 2010, dated 2013).

pIC50: −log10 of the molar value.

Experiment [1] concerns the target T1, recombinant human FLAP protein (Homo sapiens, UniProt P20292).
T1 construct: made in house; host or cells: Sf9 insect cells (100,000xg membrane fraction used)
T1 sequence (P20292 1-161): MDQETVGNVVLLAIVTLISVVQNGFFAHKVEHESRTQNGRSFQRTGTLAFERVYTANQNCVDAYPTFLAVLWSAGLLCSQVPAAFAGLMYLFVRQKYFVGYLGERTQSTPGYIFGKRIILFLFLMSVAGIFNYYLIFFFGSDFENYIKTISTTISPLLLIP
As to the kind of experiment: FLAP binding assay (Scintillation Proximity Assay, displacement of [125I]L-691,831). The settings on record: read-out: FLAP SPA IC50. The method, then:
Compounds are assessed for the ability to bind to FLAP in a binding assay that measures compound-specific displacement of an iodinated (^125I) FLAP inhibitor via a Scintillation Proximity Assay format (adapted from S. Charleson et al., Mol. Pharmacol., 1992, 41, 873-879).
Cell pellets produced from sf9 insect cells expressing recombinant human FLAP protein are resuspended in buffer A [15 mM Tris-HCl (pH 7.5), 2 mM MgCl2, 0.3 mM EDTA, 1 mM PMSF]. The cells are lysed with a Dounce homogenizer and the material is centrifuged at 10,000×g for 10 minutes. The supernatant is then collected and centrifuged at 100,000×g for 60 minutes. To prepare membrane protein for an assay, an aliquot of the 100,000×g pellet is resuspended in 1 ml of buffer A, Dounce homogenized, and finally subjected to polytron mixing (30 seconds). Membrane protein (25 μl, 5 μg) is mixed with WGA SPA beads (Amersham) and stirred for 1 h. […] (final concentrations: beads, 200 μg/well; protein, 5 μg/well; [^125I] probe, 0.08 nM/well (17 nCi/well). The plates are shaken for 2 h before reading on a Microbeta plate reader. Non-specific binding is determined by the addition of 10 μM cold L-691,831 compound.
Background: SPA uses beads or plates that emit light when radiolabelled molecules are held near them.

Experiment [2] relates to synthesis of LTB4 in human whole blood. As to the kind of experiment: human whole blood LTB4 production inhibition assay. The format is cell-based. To be noted: calcimycin stimulated, read-out: hWB LTB4 IC50. The method, then: Compounds are additionally tested in a human whole blood assay to determine their ability to inhibit the synthesis of LTB4 in a cellular system. Compounds are combined with heparinized human whole blood and incubated for 15 minutes at 37° C. Calcimycin (20 μM final, prepared in phosphate-buffered saline, pH 7.4) is then added and the mixture is incubated for another 30 minutes at 37° C. The samples are centrifuged for 5 min at low speed (1500×g) and the plasma layer is removed. Plasma LTB4 concentrations are then measured using an antibody-based homogenous time-resolved fluorescence method (CisBio, Bedford, Mass.).

For orientation: pIC50 means the negative decadic logarithm of the IC50, by convention in mol/L. On to `CC(O)Cn1cc(-c2nc(C(C)(c3ccc(-c4cnc(N)nc4)nc3)C(C)C)no2)cn1` (stereo not drawn) [Example 1, 1-[4-(3-{2-[6-(2-aminopyrimidin-5-yl)pyridin-3-yl]-3-methylbutan-2-yl}-1,2,4-oxadiazol-5-yl)-1H-pyrazol-1-yl]propan-2-ol], for which the figures for the negative logarithm of the IC50 (pIC50) in experiment [1] and in experiment [2] were 8.08 and 7.27, respectively.

In the case of `CC(C)C(C)(c1ccc(-c2cnc(N)nc2)nc1)c1noc(-c2cnn(CC(C)(C)O)c2)n1` (stereo not drawn) [Example 2, 1-[4-(3-{2-[6-(2-aminopyrimidin-5-yl)pyridin-3-yl]-3-methylbutan-2-yl}-1,2,4-oxadiazol-5-yl)-1H-pyrazol-1-yl]-2-methylpropan-2-ol], the figures for the pIC50 in experiment [1] and in experiment [2] were 8.00 and 7.13, respectively.

With `CC(C)C(C)(c1ccc(-c2cnc(N)nc2)nc1)c1noc(-c2cnn(C)c2)n1` (stereo not drawn) [Example 3, 5-(5-{3-methyl-2-[5-(1-methyl-1H-pyrazol-4-yl)-1,2,4-oxadiazol-3-yl]butan-2-yl}pyridin-2-yl)pyrimidin-2-amine], the pIC50 is 8.33 in experiment [1] and 7.17 in experiment [2].

For the compound `CC(C)[C@](C)(c1ccc(-c2cnc(N)nc2)nc1)c1noc(-c2cnn(C)c2)n1` [Example 4, 5-(5-{(2R)-3-methyl-2-[5-(1-methyl-1H-pyrazol-4-yl)-1,2,4-oxadiazol-3-yl]butan-2-yl}pyridin-2-yl)pyrimidin-2-amine], the pIC50 in experiment [1] is 8.52; in experiment [2], 7.70.

As to `CC(C)[C@@](C)(c1ccc(-c2cnc(N)nc2)nc1)c1noc(-c2cnn(C)c2)n1` [Example 5, 5-(5-{(2S)-3-methyl-2-[5-(1-methyl-1H-pyrazol-4-yl)-1,2,4-oxadiazol-3-yl]butan-2-yl}pyridin-2-yl)pyrimidin-2-amine], the pIC50 in experiment [1] is 7.12; in experiment [2] it was 6.12.

In the case of `CC(C)C(C)(c1ccc(-c2cnc(N)nc2)nc1)c1noc(-c2cnn(C(C)(C)CO)c2)n1` (stereo not drawn) [Example 6, 2-[4-(3-{2-[6-(2-aminopyrimidin-5-yl)pyridin-3-yl]-3-methylbutan-2-yl}-1,2,4-oxadiazol-5-yl)-1H-pyrazol-1-yl]-2-methylpropan-1-ol], the results for the pIC50 in experiment [1] and in experiment [2] were 8.07 and 6.66, respectively.

As for `CC(C)C(C)(c1ccc(-c2cnc(N)nc2)nc1)c1noc(-c2cnn(CC(=O)N(C)C)c2)n1` (stereo not drawn) [Example 7, 2-[4-(3-{2-[6-(2-aminopyrimidin-5-yl)pyridin-3-yl]-3-methylbutan-2-yl}-1,2,4-oxadiazol-5-yl)-1H-pyrazol-1-yl]-N,N-dimethylacetamide], the pIC50 in experiment [1] is 7.84; in experiment [2], 6.74.

As to `CC(C)(O)Cn1cc(-c2nc(C(C)(c3ccc(-c4cnc(N)nc4)nc3)C3CC3)no2)cn1` (stereo not drawn) [Example 66, 1-[4-(3-{1-[6-(2-aminopyrimidin-5-yl)pyridin-3-yl]-1-cyclopropylethyl}-1,2,4-oxadiazol-5-yl)-1H-pyrazol-1-yl]-2-methylpropan-2-ol], the pIC50 in experiment [2] was 7.28.

With `CC(C)(O)Cn1cc(-c2nc([C@@](C)(c3ccc(-c4cnc(N)nc4)nc3)C3CC3)no2)cn1` [Example 81, 1-[4-(3-{(1R)-1-[6-(2-aminopyrimidin-5-yl)pyridin-3-yl]-1-cyclopropylethyl}-1,2,4-oxadiazol-5-yl)-1H-pyrazol-1-yl]-2-methylpropan-2-ol], the pIC50 in experiment [2] was 7.39.

Consider `CC(C)(O)Cn1cc(-c2nc([C@](C)(c3ccc(-c4cnc(N)nc4)nc3)C3CC3)no2)cn1` [Example 82, 1-[4-(3-{(1S)-1-[6-(2-aminopyrimidin-5-yl)pyridin-3-yl]-1-cyclopropylethyl}-1,2,4-oxadiazol-5-yl)-1H-pyrazol-1-yl]-2-methylpropan-2-ol], for which the pIC50 in experiment [2] is 5.92.

On to `CC(C)(O)Cn1cc(-c2nc([C@@](C)(c3ccc(-c4cnc(N)c(C#N)c4)nc3)C3CC3)no2)cn1` [Example 162, 6′-Amino-5-((R)-1-cyclopropyl-1-{5-[1-(2-hydroxy-2-methyl-propyl)-1H-pyrazol-4-yl]-[1,2,4]oxadiazol-3-yl}-ethyl)-[2,3′]bipyridinyl-5′-carbonitrile], for which the negative logarithm of the IC50 (pIC50) in experiment [2] was 6.50.

Turning to `CC(C)(O)Cn1cc(-c2nc([C@@](C)(c3ccc(-c4cnc5c(c4)OCCN5)nc3)C3CC3)no2)cn1` [Example 167, 1-[4-(3-{(R)-1-Cyclopropyl-1-[6-(3,4-dihydro-2H-pyrido[3,2-b][1,4]oxazin-7-yl)-pyridin-3-yl]-ethyl}-[1,2,4]oxadiazol-5-yl)-pyrazol-1-yl]-2-methyl-propan-2-ol], the pIC50 in experiment [2] is 6.77.

For the compound `CC(C)(O)Cn1cc(-c2nc([C@@](C)(c3ccc(-c4cnc5[nH]ccc5n4)nc3)C3CC3)no2)cn1` [Example 168, 1-[4-(3-{(R)-1-Cyclopropyl-1-[6-(5H-pyrrolo[2,3-b]pyrazin-2-yl)-pyridin-3-yl]-ethyl}-[1,2,4]oxadiazol-5-yl)-pyrazol-1-yl]-2-methyl-propan-2-ol], the negative-log IC50 (pIC50) in experiment [2] was 7.20.

In the case of `CNc1ncc(-c2ccc([C@](C)(c3noc(-c4cnn(C5CCOCC5)c4)n3)C3CC3)cn2)cn1` [Example 169, {5-[5-((R)-1-Cyclopropyl-1-{5-[1-(tetrahydro-pyran-4-yl)-1H-pyrazol-4-yl]-[1,2,4]oxadiazol-3-yl}-ethyl)-pyridin-2-yl]-pyrimidin-2-yl}-methyl-amine], in experiment [2], the pIC50 is 6.98.

In the case of `CNc1cnc(-c2ccc([C@](C)(c3noc(-c4cnn(C)c4)n3)C3CC3)cn2)cn1` [Example 170, [5-(5-{(R)-1-Cyclopropyl-1-[5-(1-methyl-1H-pyrazol-4-yl)-[1,2,4]oxadiazol-3-yl]-ethyl}-pyridin-2-yl)-pyrazin-2-yl]-methyl-amine], the pIC50 in experiment [2] is 6.95.

For the compound `C[C@@](c1ccc(-c2cnc(N)nc2)nc1)(c1noc(-c2cnn(C3CCOCC3)c2)n1)C1CC1` [Example 171, 5-[5-((R)-1-Cyclopropyl-1-{5-[1-(tetrahydro-pyran-4-yl)-1H-pyrazol-4-yl]-[1,2,4]oxadiazol-3-yl}ethyl)-pyridin-2-yl]-pyrimidin-2-ylamine], the pIC50 in experiment [2] is 6.92.

Take `CNc1ncc(-c2ccc([C@](C)(c3noc(-c4cnn(C)c4)n3)C3CC3)cn2)cn1` [Example 172, [5-(5-{(R)-1-Cyclopropyl-1-[5-(1-methyl-1H-pyrazol-4-yl)-[1,2,4]oxadiazol-3-yl]ethyl}-pyridin-2-yl)-pyrimidin-2-yl]-methyl-amine]: the pIC50 in experiment [2] is 6.98.

Turning to `CNc1cnc(-c2ccc([C@](C)(c3noc(-c4cnn(C5CCOCC5)c4)n3)C3CC3)cn2)cn1` [Example 173, {5-[5-((R)-1-Cyclopropyl-1-{5-[1-(tetrahydro-pyran-4-yl)-1H-pyrazol-4-yl]-[1,2,4]oxadiazol-3-yl}-ethyl)-pyridin-2-yl]-pyrazin-2-yl}-methyl-amine], the pIC50 in experiment [2] is 6.66.

With `C[C@@](c1ccc(-c2cnc(N)cn2)nc1)(c1noc(-c2cnn(C3CCOCC3)c2)n1)C1CC1` [Example 174], in experiment [2], the pIC50 is 7.28.

Regarding `CNc1ncc(-c2ccc([C@](C)(c3noc(-c4cnn(CC(=O)N(C)C)c4)n3)C3CC3)cn2)cn1` [Example 176, 2-[4-(3-{(R)-1-Cyclopropyl-1-[6-(2-methylamino-pyrimidin-5-yl)-pyridin-3-yl]-ethyl}-[1,2,4]oxadiazol-5-yl)-pyrazol-1-yl]-N,N-dimethyl-acetamide], the pIC50 in experiment [2] is 6.57.
